Assay results published in patent US11033569B2, “Compounds,Compositions, and methods for the treatment of disease” (Sperovie Biosciences, Inc., priority 2016, dated 2021).
Entries after “also recorded” stand apart in the source; their conditions may differ. Read-outs that look alike come from different tables or passages of the source.

What was measured:
ISG54 ISRE-luc reporter = ISG54 ISRE-luc reporter activation in HEK293 (SZ14) cells, screen for STING agonists; assay type: cell-based; conditions: digitonin buffer, 5 hours, read-out: IRF EC50
Protocol: (§1) ISG54 or NF-κβ activity was determined using the Steady-glo buffer system (Promega), and are expressed as EC50 values summarized in Table 3 below. […] This calculation is applicable for compounds with enzyme inhibition activity, as the baseline for an untreated sample may be set at 100% enzymatic activity, and therefore % inhibition is evaluated based on this 100% maximal basis. For these studies, the EC50 value relates to the concentration required to achieve a value 50% activity level above the untreated sample set at 0%.
(§2) Data are shown as fold induction over cells that received DMSO (compound carrier) alone as the mean, +/−standard deviation of duplicate wells per stimulant.

NF-κβ-luc reporter = NF-κβ-luc reporter activation in HEK293 (SZ14) cells, screen for STING agonists; assay type: cell-based; conditions: digitonin buffer, 5 hours, read-out: NF-KB EC50
Protocol: as §1, §2

A20 lymphoma = assay: Syngeneic A20 lymphoma mouse model; assay type: in vivo; conditions: monotherapy; for tumor growth: compared with vehicle
THP1 cells and PBMCs = assay: Gene expression of ISGs and PRRs in THP1 and PBMCs (real time PCR); assay type: cell-based; conditions: 5 uM, Lipofectamine LTX, 20 h
Protocol: (§3) After incubation for 20 h, RNA was extracted and gene expression of different Interferon Stimulated Genes (ISGs) and various Pattern Recognition Receptors (PRRs) was evaluated by real time PCR. Fold Induction was calculated by ΔΔct method.
as §3

mouse macrophages = assay: Type I IFN signaling in mouse macrophages; assay type: cell-based; conditions: mouse macrophages (FIG. 36B)
Protocol: Activity of secreted luciferase in cell culture supernatant was measured using Invivogen Quanti-luc. Data are shown as fold induction over DMSO treated cells (mean±standard deviation of triplicate wells per stimulant).

human monocytes = assay: Activity in human monocytes; assay type: cell-based; conditions: human monocytes (FIG. 36A)
THP1 cells = assay: Type III IFN (IL-29) production in THP1 cells (ELISA); assay type: cell-based; conditions: 21 hrs
Protocol: Level of IL-29 in culture supernatant was determined using ELISA. Results shown are the average±standard deviation of duplicate wells.

CT26 colon cancer = assay: Syngeneic CT26 colon cancer mouse model; assay type: in vivo; conditions: intratumoral administration
[1] = vs vehicle, vehicle and Ethanol (FIG. 80)

| SMILES | EC50 (ISG54 ISRE-luc reporter) | EC50 (NF-κβ-luc reporter) | also measured |
| --- | --- | --- | --- |
| CCCCCCCCCCOc1ccc(C(=O)Oc2ccc(CS[P@]3(=O)OC[C@H]4O[C@@H](n5cnc6c(N)ncnc65)[C@H](F)[C@@H]4OP(=O)(O)OC[C@H]4O[C@@H](n5ccc(=O)[nH]c5=O)[C@H](F)[C@@H]4O3)cc2)cc1.N (single isomer, unassigned) [Cmd 1A] | < 50 nM | 50 to 500 nM | survival rate (A20 lymphoma): significantly improve the survival rate; tumor growth (A20 lymphoma): inhibit mouse A20 B cell lymphoma tumor cells |
| CCCCCCCCCCOc1ccc(C(=O)Oc2ccc(CS[P@@]3(=O)OC[C@H]4O[C@@H](n5cnc6c(N)ncnc65)[C@H](F)[C@@H]4OP(=O)(O)OC[C@H]4O[C@@H](n5ccc(=O)[nH]c5=O)[C@H](F)[C@@H]4O3)cc2)cc1 (single isomer, unassigned) [Cmd 1B] | < 50 nM | 50 to 500 nM |  |
| Nc1ncnc2c1ncn2[C@@H]1O[C@@H]2COP(=O)(S)O[C@H]3[C@@H](F)[C@H](n4ccc(=O)[nH]c4=O)O[C@@H]3COP(=O)(S)O[C@H]2[C@H]1F (some centres unmarked) [Cmd 2] |  |  | EC50 (ISG54 ISRE-luc reporter; Homo sapiens): 1000 to 2000 nM; EC50 (NF-κβ-luc reporter; Homo sapiens): > 2000 nM |
| CCCCCCCCCCOc1ccc(C(=O)Oc2ccc(CSP3(=O)OC[C@H]4O[C@@H](n5cnc6c(N)ncnc65)[C@H](F)[C@@H]4OP(=O)(SCc4ccc(OC(=O)c5ccc(OCCCCCCCCCC)cc5)cc4)OC[C@H]4O[C@@H](n5ccc(=O)[nH]c5=O)[C@H](F)[C@@H]4O3)cc2)cc1 (some centres unmarked) [Cmd 4] | 1000 to 2000 nM | > 2000 nM | induction of ISG and PRR-associated genes, THP1 compared to PBMCs (THP1 cells and PBMCs): Enhanced Activity |
| CC(C)OC(=O)OCSP1(=O)OC[C@H]2O[C@@H](n3cnc4c(N)ncnc43)[C@H](F)[C@@H]2OP(=O)(O)OC[C@H]2O[C@@H](n3ccc(=O)[nH]c3=O)[C@H](F)[C@@H]2O1.N (some centres unmarked) [Cmd 5] | > 2000 nM | > 2000 nM | activity relative to natural STING ligand 3′,3′-cGAMP (mouse macrophages): more active; activity relative to natural STING ligand 3′,3′-cGAMP (human monocytes): more active |
| CCCCCCCCOc1ccc(C(=O)Oc2ccc(CSP3(=O)OC[C@H]4O[C@@H](n5cnc6c(N)ncnc65)[C@H](F)[C@@H]4OP(=O)(O)OC[C@H]4O[C@@H](n5ccc(=O)[nH]c5=O)[C@H](F)[C@@H]4O3)cc2)cc1.N (some centres unmarked) [Cmd 12] | < 50 nM | < 50 nM | activity relative to natural STING ligand 3′,3′-cGAMP (mouse macrophages): more active; activity relative to natural STING ligand 3′,3′-cGAMP (human monocytes): more active |
| CCCCCCCCCCCC(=O)Oc1ccc(CSP2(=O)OC[C@H]3O[C@@H](n4cnc5c(N)ncnc54)[C@H](F)[C@@H]3OP(=O)(O)OC[C@H]3O[C@@H](n4ccc(=O)[nH]c4=O)[C@H](F)[C@@H]3O2)cc1.N (some centres unmarked) [Cmd 13] | < 50 nM | 50 to 500 nM | activity relative to natural STING ligand 3′,3′-cGAMP (mouse macrophages): more active; activity relative to natural STING ligand 3′,3′-cGAMP (human monocytes): more active |
| CCCCCCOc1ccc(C(=O)Oc2ccc(CSP3(=O)OC[C@H]4O[C@@H](n5cnc6c(N)ncnc65)[C@H](F)[C@@H]4OP(=O)(O)OC[C@H]4O[C@@H](n5ccc(=O)[nH]c5=O)[C@H](F)[C@@H]4O3)cc2)cc1.N (some centres unmarked) [Cmd 14] | < 50 nM | < 50 nM | activity relative to natural STING ligand 3′,3′-cGAMP (mouse macrophages): more active; activity relative to natural STING ligand 3′,3′-cGAMP (human monocytes): more active |
| CCCCCCCCCCCCOc1ccc(C(=O)Oc2ccc(CSP3(=O)OC[C@H]4O[C@@H](n5cnc6c(N)ncnc65)[C@H](F)[C@@H]4OP(=O)(O)OC[C@H]4O[C@@H](n5ccc(=O)[nH]c5=O)[C@H](F)[C@@H]4O3)cc2)cc1.N (some centres unmarked) [Cmd 15] | < 50 nM | < 50 nM | activity relative to natural STING ligand 3′,3′-cGAMP (mouse macrophages): more active; activity relative to natural STING ligand 3′,3′-cGAMP (human monocytes): more active; type III interferon (IL-29) production (THP1 cells): induce type III interferon (IL-29) production |
| CO[C@@H]1[C@@H]2OP(=O)(S)OC[C@H]3O[C@@H](n4cnc5c(N)ncnc54)C[C@@H]3OP(=O)(S)OC[C@H]2O[C@H]1n1ccc(=O)[nH]c1=O (some centres unmarked) [Cmd 17] |  |  | EC50 (ISG54 ISRE-luc reporter; Homo sapiens): > 2000 nM; EC50 (NF-κβ-luc reporter; Homo sapiens): > 2000 nM |
| Nc1nc2c(ncn2[C@@H]2O[C@@H]3COP(=O)(S)O[C@H]4[C@@H](O)[C@H](n5cnc6c(=O)[nH]c(N)nc65)O[C@@H]4COP(=O)(S)O[C@H]3[C@H]2O)c(=O)[nH]1 (some centres unmarked) [Cmd 18] |  |  | EC50 (ISG54 ISRE-luc reporter; Homo sapiens): > 2000 nM; EC50 (NF-κβ-luc reporter; Homo sapiens): > 2000 nM |
| CCCCCCCCCCOc1ccc(C(=O)Oc2ccc(CSP3(=O)OC[C@H]4O[C@@H](n5cnc6c(N)ncnc65)C[C@@H]4OP(=O)(SCc4ccc(OC(=O)c5ccc(OCCCCCCCCCC)cc5)cc4)OC[C@H]4O[C@@H](n5ccc(=O)[nH]c5=O)[C@H](OC)[C@@H]4O3)cc2)cc1 (some centres unmarked) [Cmd 20] | > 2000 nM | > 2000 nM |  |
| N.N.Nc1ncnc2c1ncn2[C@@H]1O[C@@H]2COP(=O)(S)O[C@H]3[C@@H](F)[C@H](n4ccc(=O)[nH]c4=O)O[C@@H]3COP(=O)(O)O[C@H]2[C@H]1F (some centres unmarked) [Cmd 21] |  |  | EC50 (ISG54 ISRE-luc reporter; Homo sapiens): 500 to 1000 nM; EC50 (NF-κβ-luc reporter; Homo sapiens): > 2000 nM; survival rate (A20 lymphoma): significantly improve the survival rate; tumor growth (A20 lymphoma): considerable tumor growth inhibition; also recorded: inhibit mouse A20 B cell lymphoma tumor cells; tumor growth (CT26 colon cancer; vs vehicle (FIG. 79)): considerable tumor growth inhibition; tumor growth (CT26 colon cancer; [1]): considerable tumor growth inhibition |
| CCCCCCCCCCCCOc1ccc(C(=O)Oc2ccc(CS[P@@]3(=O)OC[C@H]4O[C@@H](n5cnc6c(N)ncnc65)[C@H](F)[C@@H]4OP(=O)(O)OC[C@H]4O[C@@H](n5ccc(=O)[nH]c5=O)[C@H](F)[C@@H]4O3)cc2)cc1 [Cmd 22] | < 50 nM | 50 to 500 nM |  |
| CCCCCCCCCCCCOc1ccc(C(=O)Oc2ccc(CS[P@]3(=O)OC[C@H]4O[C@@H](n5cnc6c(N)ncnc65)[C@H](F)[C@@H]4OP(=O)(O)OC[C@H]4O[C@@H](n5ccc(=O)[nH]c5=O)[C@H](F)[C@@H]4O3)cc2)cc1 [Cmd 23] | < 50 nM | 50 to 500 nM |  |
| CCCCCCCCCCOc1ccc(C(=O)Oc2ccc(CSP3(=O)OC[C@H]4O[C@@H](n5cnc6c(N)ncnc65)[C@H](F)[C@@H]4OP(=O)(O)OC[C@H]4O[C@@H](n5ccc(=O)[nH]c5=O)[C@H](F)[C@@H]4O3)cc2)c(C)c1 (some centres unmarked) [Cmd 25] | < 50 nM | 50 to 500 nM | tumor growth (CT26 colon cancer; vs vehicle (FIG. 79)): considerable tumor growth inhibition; tumor growth (CT26 colon cancer; [1]): considerable tumor growth inhibition |
| CCCCCCCCCCOC(=O)Oc1ccc(CSP2(=O)OC[C@H]3O[C@@H](n4cnc5c(N)ncnc54)[C@H](F)[C@@H]3OP(=O)(O)OC[C@H]3O[C@@H](n4ccc(=O)[nH]c4=O)[C@H](F)[C@@H]3O2)cc1 (some centres unmarked) [Cmd 26] | < 50 nM | < 50 nM |  |
| CCCCCCCCCCOc1ccc(Oc2ccc(CSP3(=O)OC[C@H]4O[C@@H](n5cnc6c(N)ncnc65)[C@H](F)[C@@H]4OP(=O)(O)OC[C@H]4O[C@@H](n5ccc(=O)[nH]c5=O)[C@H](F)[C@@H]4O3)cc2)cc1 (some centres unmarked) [Cmd 29] | 50 to 500 nM | 500 to 1000 nM |  |
| CCCCCCCCCCOc1ccc(C(=O)Nc2ccc(CSP3(=O)OC[C@H]4O[C@@H](n5cnc6c(N)ncnc65)[C@H](F)[C@@H]4OP(=O)(O)OC[C@H]4O[C@@H](n5ccc(=O)[nH]c5=O)[C@H](F)[C@@H]4O3)cc2)cc1 (some centres unmarked) [Cmd 30] | 500 to 1000 nM | > 2000 nM |  |
| CCCCCCCCCCOc1ccc(C(=O)NCc2ccc(CSP3(=O)OC[C@H]4O[C@@H](n5cnc6c(N)ncnc65)[C@H](F)[C@@H]4OP(=O)(O)OC[C@H]4O[C@@H](n5ccc(=O)[nH]c5=O)[C@H](F)[C@@H]4O3)cc2)cc1 (some centres unmarked) [Cmd 31] | 500 to 1000 nM | > 2000 nM |  |
| CCCCCCCCCCNC(=O)Oc1ccc(CSP2(=O)OC[C@H]3O[C@@H](n4cnc5c(N)ncnc54)[C@H](F)[C@@H]3OP(=O)(O)OC[C@H]3O[C@@H](n4ccc(=O)[nH]c4=O)[C@H](F)[C@@H]3O2)cc1 (some centres unmarked) [Cmd 32] | 50 to 500 nM | 50 to 500 nM |  |
